Assay results reported in PMC12424613, “Analysis of the resistance level and target site resistance mechanisms of Echinochloa crus-galli to penoxsulam from Hubei Province, China” (PeerJ, 2025).

Biological target: T1, acetolactate synthase (ALS)
T1 construct: native ALS from leaf extract of susceptible population 18-NJ (ammonium sulfate precipitated, desalted; ALS1/ALS2/ALS3 copies not separated)
Assay: in vitro ALS activity assay (acetoin formation, […] nm) in desalted leaf enzyme extract
Format: biochemical, Echinochloa crus-galli

`COc1cnc(OC)n2nc(NS(=O)(=O)c3c(OCC(F)F)cccc3C(F)(F)F)nc12` [penoxsulam] gave an IC50 of 1230 nM.
